Laboratory results reported in PMC6207370 (Xenobiotica; the fate of foreign compounds in biological …, 2017).
“And” between values parts separate entries of the source, which are not always exact repeats. Identical values can stand only once. Like-named read-outs stand apart in the source and are kept apart here. Marks after values point to notes of the source that are not given here.

What was measured:
[1] = Incubations with guinea pig hepatic S9; conditions: for Fm,AO Method A (fraction metabolized by AO) / Fm,AO Method B (fraction metabolized by AO): guinea pig hepatic S9; for Fm,AO Method A (fraction metabolized by AO): method A (eq. 4); for Fm,AO Method B (fraction metabolized by AO): method B (eq. 5), values > 1 assumed equal to 1; for E (estimated hepatic extraction ratio): guinea pig, E = CLHEP/QH from hepatic S9 (+NADPH)
[2] = human; ref Hutzler JM, Cerny MA, Yang YS et al. (2014); cited from earlier work
Allometric scaling = experiment: Allometric scaling; parameters: species or system human; conditions: for SSS Human Predicted S9 CLint: exponent 0.75
[3] = rat; ref Hutzler JM, Cerny MA, Yang YS et al. (2014); cited from earlier work
[4] = mouse; ref Hutzler JM, Cerny MA, Yang YS et al. (2014); cited from earlier work
[5] = Incubations with rat hepatic S9; conditions: for CLint scaled at 1 μM: male, Sprague-Dawley, Table 1, triplicate, 2–3 experiments; for CLint scaled at 1 μM / E (estimated hepatic extraction ratio) / CLHEP (hepatic clearance): rat; for Fm,AO Method A (fraction metabolized by AO): method A (eq. 4); for Fm,AO Method B (fraction metabolized by AO): method B (eq. 5), values > 1 assumed equal to 1; for E (estimated hepatic extraction ratio): E = CLHEP/QH from hepatic S9 (+NADPH); for CLHEP (hepatic clearance): well-stirred model from S9 CLint (+NADPH), uncorrected for fraction unbound
[6] = Incubations with mouse hepatic S9; conditions: for CLint scaled at 1 μM: male, CD-1, mouse, Table 1, triplicate, 2–3 experiments; for E (estimated hepatic extraction ratio): mouse, E = CLHEP/QH from hepatic S9 (+NADPH)
[7] = Incubations with rhesus monkey hepatic S9; conditions: for Fm,AO Method A (fraction metabolized by AO) / Fm,AO Method B (fraction metabolized by AO): rhesus monkey hepatic S9; for Fm,AO Method A (fraction metabolized by AO): method A (eq. 4); for Fm,AO Method B (fraction metabolized by AO): method B (eq. 5), values > 1 assumed equal to 1; for E (estimated hepatic extraction ratio): rhesus monkey, E = CLHEP/QH from hepatic S9 (+NADPH)
[8] = cynomolgus monkey; ref Hutzler JM, Cerny MA, Yang YS et al. (2014); cited from earlier work
[9] = Incubations with minipig hepatic S9; conditions: for CLint scaled at 1 μM: male, Gottingen, Table 1, triplicate, 2–3 experiments; for CLint scaled at 1 μM / E (estimated hepatic extraction ratio): minipig; for Fm,AO Method A (fraction metabolized by AO) / Fm,AO Method B (fraction metabolized by AO): minipig hepatic S9; for Fm,AO Method A (fraction metabolized by AO): method A (eq. 4); for Fm,AO Method B (fraction metabolized by AO): method B (eq. 5), values > 1 assumed equal to 1; for E (estimated hepatic extraction ratio): E = CLHEP/QH from hepatic S9 (+NADPH)
[10] = type: in vitro ADME
[11] = Incubations with human hepatic S9; conditions: for CLint scaled at 1 μM: both; for CLint scaled at 1 μM / E (estimated hepatic extraction ratio): human; for Fm,AO Method A (fraction metabolized by AO): method A (eq. 4); for Fm,AO Method B (fraction metabolized by AO): method B (eq. 5), values > 1 assumed equal to 1; for E (estimated hepatic extraction ratio): E = CLHEP/QH from hepatic S9 (+NADPH)
[12] = Incubations with cynomolgus monkey hepatic S9; conditions: for Fm,AO Method A (fraction metabolized by AO): method A (eq. 4); for Fm,AO Method B (fraction metabolized by AO): method B (eq. 5), values > 1 assumed equal to 1; for E (estimated hepatic extraction ratio): cynomolgus monkey, E = CLHEP/QH from hepatic S9 (+NADPH)

CN1CCC(Nc2ncc3ncnc(Nc4ccc(F)c(Cl)c4)c3n2)CC1 [BIBX1382]
Fm,AO Method A (fraction metabolized by AO) [1]: 0.65
Fm,AO Method B (fraction metabolized by AO) [1]: 0.73
E (estimated hepatic extraction ratio) [1]: 0.54
CLp (plasma clearance) [2]: 25–55^¶ mL/min/kg
fold-error of human S9 CLint predicted by SSS (Allometric scaling; SSS from guinea pig): outside of 3-fold-error
SSS Human Predicted S9 CLint (Allometric scaling; single-species scaling from cynomolgus monkey S9 CLint): 88.7 mL/min/kg
SSS Human Predicted S9 CLint (Allometric scaling; single-species scaling from mouse S9 CLint): 4.3 mL/min/kg
SSS Human Predicted S9 CLint (Allometric scaling; single-species scaling from rat S9 CLint): 7.5 mL/min/kg
CLp (plasma clearance) [3]: 55^¶ mL/min/kg
CLp (plasma clearance) [4]: 55^¶ mL/min/kg
CLint scaled at 1 μM ([5]; s9, pH 7.4, CLint (intrinsic clearance) in hepatic S9, rat hepatic S9, in the presence of NADPH): 30.7 ± 3.56 mL/min/kg
Fm,AO Method A (fraction metabolized by AO) ([5]; rat hepatic S9): 0.09
Fm,AO Method B (fraction metabolized by AO) ([5]; rat hepatic S9): 0.69
Fm,AO (fraction metabolized by AO) ([5]; rat hepatic S9, methods A and B taken together (data from Table 3)): ≤ 0.69
CLint +NADPH +Hyd ([5]; rat hepatic S9 containing NADPH and hydralazine (50 μM)): 25.1 ± 6.29 mL/min/kg
CLint +NADPH ([5]; rat hepatic S9 containing NADPH, Table 3 data set, triplicate): 27.6 ± 0.995 mL/min/kg
E (estimated hepatic extraction ratio) [5]: 0.30
CLHEP (hepatic clearance) [5]: 21.3 ± 1.73 mL/min/kg
CLint scaled at 1 μM ([6]; s9, pH 7.4, CLint (intrinsic clearance) in hepatic S9, mouse hepatic S9, in the presence of NADPH): 33.2 ± 7.1 mL/min/kg
E (estimated hepatic extraction ratio) [6]: 0.27
Fm,AO Method A (fraction metabolized by AO) [7]: 0.94
Fm,AO Method B (fraction metabolized by AO) [7]: 0.86
E (estimated hepatic extraction ratio) [7]: 0.72
CLp (plasma clearance) [8]: 118^¶ mL/min/kg
CLint scaled at 1 μM ([9]; s9, pH 7.4, CLint (intrinsic clearance) in hepatic S9, minipig hepatic S9, in the presence of NADPH): 134 ± 5.69 mL/min/kg
Fm,AO Method A (fraction metabolized by AO) [9]: 0.85
Fm,AO Method B (fraction metabolized by AO) [9]: 0.96
E (estimated hepatic extraction ratio) [9]: 0.83
E (estimated hepatic extraction ratio), across species ([10]; human, monkey, and minipig S9): 0.72 – 0.83
CLint scaled at 1 μM ([11]; s9, pH 7.4, CLint (intrinsic clearance) in hepatic S9, human hepatic S9, in the presence of NADPH, Table 1, triplicate, 2–3 experiments): 80.2 ± 9.61 mL/min/kg
CLint scaled at 1 μM ([11]; s9, pH 7.4, CLint +NADPH +Hyd, human hepatic S9 containing NADPH and hydralazine (50 μM)): 5.83 ± 1.22 mL/min/kg
CLint scaled at 1 μM ([11]; s9, pH 7.4, CLint −NADPH +Hyd, human hepatic S9 containing hydralazine (50 μM) without NADPH): 3.93 ± 1.75 mL/min/kg
CLint scaled at 1 μM ([11]; s9, pH 7.4, CLint −NADPH, human hepatic S9 without NADPH): 69.6 ± 2.1 mL/min/kg
Fm,AO Method A (fraction metabolized by AO) ([11]; human hepatic S9): 0.92
Fm,AO Method B (fraction metabolized by AO) ([11]; human hepatic S9): 0.92
Fm,AO (fraction metabolized by AO) ([11]; human hepatic S9, methods A and B taken together (data from Table 3)): 0.92
E (estimated hepatic extraction ratio) [11]: 0.79
Fm,AO Method A (fraction metabolized by AO) ([12]; cynomolgus monkey hepatic S9): 1
Fm,AO Method B (fraction metabolized by AO) ([12]; cynomolgus monkey hepatic S9): 1^#
Fm,AO (fraction metabolized by AO) ([12]; cynomolgus monkey hepatic S9, methods A and B taken together (data from Table 3)): 1.0
E (estimated hepatic extraction ratio) [12]: 0.80
SSS Human Predicted CLp (Single-species scaling; single-species scaling from literature cynomolgus monkey CLp): 56 mL/min/kg and 56.0 mL/min/kg
SSS Human Predicted CLp (Single-species scaling; single-species scaling from literature mouse CLp): 7.2 mL/min/kg
SSS Human Predicted CLp (Single-species scaling; single-species scaling from literature rat CLp): 13.4 mL/min/kg

Cn1cc(-c2ccc3nnc(Sc4ccc5ncccc5c4)n3n2)cn1 [SGX523]
Fm,AO Method A (fraction metabolized by AO) [1]: 0.23
Fm,AO Method B (fraction metabolized by AO) [1]: 0.03
E (estimated hepatic extraction ratio) [1]: 0.41
fold-error of human S9 CLint predicted by SSS (Allometric scaling; SSS from cynomolgus monkey): outside of 3-fold-error
fold-error of human S9 CLint predicted by multispecies allometry (MA) (Allometric scaling; minipig/rhesus/guinea pig combination, CLpred/CLobs): 3.0
CLint scaled at 1 μM ([5]; hepatic S9, pH 7.4, CLint (intrinsic clearance) in hepatic S9, rat hepatic S9, in the presence of NADPH): 35.3 ± 6.39 mL/min/kg
Fm,AO Method A (fraction metabolized by AO) ([5]; rat hepatic S9): 0.42
Fm,AO Method B (fraction metabolized by AO) ([5]; rat hepatic S9): 0.28
E (estimated hepatic extraction ratio) [5]: 0.33
CLHEP (hepatic clearance) [5]: 23.3 ± 2.85 mL/min/kg
CLint scaled at 1 μM ([6]; hepatic S9, pH 7.4, CLint (intrinsic clearance) in hepatic S9, mouse hepatic S9, in the presence of NADPH): 39.4 ± 7.19 mL/min/kg
Fm,AO Method A (fraction metabolized by AO) ([6]; mouse hepatic S9, method A (eq. 4)): 0.33
Fm,AO Method B (fraction metabolized by AO) ([6]; mouse hepatic S9, method B (eq. 5), values > 1 assumed equal to 1): 0.22
E (estimated hepatic extraction ratio) [6]: 0.30
Fm,AO Method A (fraction metabolized by AO) [7]: 0.34
Fm,AO Method B (fraction metabolized by AO) [7]: 0.14
E (estimated hepatic extraction ratio) [7]: 0.40
CLint scaled at 1 μM ([9]; hepatic S9, pH 7.4, CLint (intrinsic clearance) in hepatic S9, minipig hepatic S9, in the presence of NADPH): 25.4 ± 1.46 mL/min/kg
Fm,AO Method A (fraction metabolized by AO) [9]: 0.18
Fm,AO Method B (fraction metabolized by AO) [9]: 0.12
E (estimated hepatic extraction ratio) [9]: 0.48
Fm,AO, across species ([10]; all species): 0.03 – 0.68
E (estimated hepatic extraction ratio), across species ([10]; all species (human, mouse, rat, guinea pig, cynomolgus, rhesus, minipig) hepatic S9): 0.25 – 0.50
CLint scaled at 1 μM ([11]; hepatic S9, pH 7.4, CLint (intrinsic clearance) in hepatic S9, human hepatic S9, in the presence of NADPH, Table 1, triplicate, 2–3 experiments): 7.1 ± 2.28 mL/min/kg
CLint scaled at 1 μM ([11]; hepatic S9, pH 7.4, CLint −NADPH, human hepatic S9 without NADPH): 4.51 ± 0.31 mL/min/kg
Fm,AO Method A (fraction metabolized by AO) ([11]; human hepatic S9): 0.36
Fm,AO Method B (fraction metabolized by AO) ([11]; human hepatic S9): 0.61
E (estimated hepatic extraction ratio) [11]: 0.25
Fm,AO Method A (fraction metabolized by AO) ([12]; cynomolgus monkey hepatic S9): 0.58
Fm,AO Method B (fraction metabolized by AO) ([12]; cynomolgus monkey hepatic S9): 0.68
E (estimated hepatic extraction ratio) [12]: 0.50
